Literature values, collected in patent publication US20170218035A1, “COMPOSITIONS AND METHODS FOR TREATMENT WITH HEMOPEXIN” (Bayer HealthCare LLC, priority 2014, published 2017).

Molecular target: T1, Hemopexin (plasma based glycoprotein) (Homo sapiens, UniProt P02790)
T1 sequence (P02790 24-462): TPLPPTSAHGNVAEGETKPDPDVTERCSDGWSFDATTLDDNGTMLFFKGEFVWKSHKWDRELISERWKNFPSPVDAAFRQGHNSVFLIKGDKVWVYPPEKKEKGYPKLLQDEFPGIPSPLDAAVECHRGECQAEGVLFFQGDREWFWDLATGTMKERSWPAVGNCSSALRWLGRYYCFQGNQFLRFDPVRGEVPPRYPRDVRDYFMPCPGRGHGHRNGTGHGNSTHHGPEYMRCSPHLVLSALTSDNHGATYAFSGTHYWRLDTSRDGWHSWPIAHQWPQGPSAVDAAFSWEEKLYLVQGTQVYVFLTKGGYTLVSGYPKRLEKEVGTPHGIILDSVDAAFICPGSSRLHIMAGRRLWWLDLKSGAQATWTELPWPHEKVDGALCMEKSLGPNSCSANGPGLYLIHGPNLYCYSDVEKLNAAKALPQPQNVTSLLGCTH
Details: highest known binding affinity for heme; reported value

C=CC1=C(C)c2cc3[nH]c(cc4nc(cc5[nH]c(cc1n2)c(C)c5CCC(=O)O)C(CCC(=O)O)=C4C)c(C)c3C=C.[Fe] [heme]
Kd: < 1 pM
